# From paper PMC9138505, “Small Molecule 20S Proteasome Enhancer Regulates MYC Protein Stability and Exhibits Antitumor Activity in Multiple Myeloma” (Biomedicines, 2022)
# Values joined by “and” are separate entries in the source; they are usually repeats but may differ in a detail not shown here. Identical values can stand only once.
# System: RPMI-8226 cells
# Experiment: Gene expression profiling, NanoString nCounter PanCancer Pathways Panel, ROSALIND analysis
# Format: cell-based, human
# Details: RPMI-8226, TCH-165 samples 1-3
# Experimental: RPMI-8226 cells were treated with vehicle or TCH-165 (10 μM) for 4 h. Total RNA was obtained using the mirVana miRNA Isolation Kit, with phenol (Thermofisher Scientific; AM1560; Waltham, MA, USA). Total RNA was quantified by Qubit (Thermofisher Scientific; Q32855; Waltham, MA, USA). and gene expression was evaluated against the nCounter® PanCancer Pathways Panel^TM according to the standard NanoString protocol.
# Data were analyzed by ROSALIND® [36] with a hyperscale architecture developed by ROSALIND, Inc. (San Diego, CA, USA). Normalization, fold changes and p-values were calculated using criteria provided by NanoString. ROSALIND follows the nCounter® Advanced Analysis protocol of dividing counts within a lane by the geometric mean of the normalizer probes from the same lane. Housekeeping probes to be used for normalization are selected based on the geNorm algorithm, as implemented in the NormqPCR R library. Fold changes and p-values are calculated using the fast method as described in the nCounter Advanced Analysis 2.0 User Manual. The p-value adjustment is performed using the Benjamini–Hochberg method of estimating false discovery rates (FDR). Clustering of genes for the final heatmap of differentially expressed genes was done using the PAM (Partitioning Around Medoids) method using the fpc R library. Hypergeometric distribution was used to analyze the enrichment of pathways, gene ontology, domain structure and other ontologies. The topGO R library was used to determine local similarities and dependencies between GO terms in order to perform Elim pruning correction. Several database sources were referenced for enrichment analysis, including Interpro [40], NCBI [41], MSigDB [42, 43], REACTOME [44], WikiPathways. Enrichment was calculated relative to a set of background genes relevant to the experiment.
structure (smiles),measurement,value
CCOC(=O)[C@]1(c2ccccc2)N=C(c2ccc(OC)cc2)N(Cc2ccccc2)[C@@H]1c1ccc(NCc2ccccc2)cc1 [TCH-165],ABL1 normalized gene expression,8.417 and 8.4055 and 8.194
same,ACVR1B normalized gene expression,5.827 and 5.592 and 5.805
same,ACVR2A normalized gene expression,6.629 and 6.427 and 6.2646
same,AKT1 normalized gene expression,9.563 and 9.727 and 9.565
same,AKT2 normalized gene expression,9.573 and 9.603 and 9.59
same,AKT3 normalized gene expression,5.86 and 5.739 and 5.506
same,ALK normalized gene expression,5.044 and 4.427 and 3.805
same,AMH normalized gene expression,4.488 and 4.27 and 3.291
same,ANGPT1 normalized gene expression,7.445 and 7.284 and 7.245
same,APC normalized gene expression,7.784 and 7.6193 and 7.522
same,AR normalized gene expression,4.723 and 4.093 and 4.653
same,ARID1A normalized gene expression,9.641 and 9.688 and 9.749
same,ARNT2 normalized gene expression,5.61 and 5.297 and 5.0068
same,ATM normalized gene expression,8.202 and 8.069 and 8.0531
same,ATR normalized gene expression,9.3284 and 9.349 and 9.258
same,ATRX normalized gene expression,10.3284 and 10.1666 and 10.2009
same,AXIN1 normalized gene expression,8.978 and 8.914 and 8.769
same,AXIN2 normalized gene expression,4.308 and 4.3768 and 4.39
same,B2M normalized gene expression,16.2154 and 16.1625 and 16.1882
same,BAD normalized gene expression,9.483 and 9.357 and 9.442
same,BAIAP3 normalized gene expression,6.488 and 5.962 and 5.926
same,BAMBI normalized gene expression,6.259 and 6.476 and 6.341
same,BAP1 normalized gene expression,8.78 and 8.732 and 8.643
same,BAX normalized gene expression,9.129 and 9.1412 and 9.225
same,BCL2A1 normalized gene expression,5.758 and 5.547 and 5.712
same,BCL2L1 normalized gene expression,10.1011 and 10.0891 and 10.0785
same,BCL2 normalized gene expression,9.695 and 9.7506 and 9.653
same,BCOR normalized gene expression,9.105 and 9.1915 and 9.017
same,BDNF normalized gene expression,5.044 and 4.739 and 5.0068
same,BID normalized gene expression,7.087 and 7.045 and 6.9095
same,BIRC3 normalized gene expression,5.924 and 5.759 and 5.5707
same,BMP2 normalized gene expression,5.259 and 4.7789 and 5.156
same,BMP4 normalized gene expression,3.86 and 2.891 and 3.0682
same,BMP5 normalized gene expression,5.758 and 5.124 and 4.653
same,BMP6 normalized gene expression,7.818 and 7.896 and 7.955
same,BMP7 normalized gene expression,8.639 and 8.544 and 8.563
same,BMPR1B normalized gene expression,5.53 and 5.476 and 5.592
same,BNIP3 normalized gene expression,9.175 and 9.079 and 9.173
same,BRAF normalized gene expression,8.142 and 7.966 and 8.109
same,BRCA1 normalized gene expression,10.3606 and 10.2785 and 10.3058
same,BRCA2 normalized gene expression,8.271 and 8.2205 and 8.187
same,CACNA1C normalized gene expression,4.649 and 4.029 and 4.291
same,CACNA1D normalized gene expression,7.445 and 7.37 and 7.163
same,CACNA1E normalized gene expression,5.723 and 5.124 and 4.876
same,CACNA1G normalized gene expression,4.649 and 4.093 and 4.483
same,CACNA1H normalized gene expression,5.259 and 4.3768 and 4.483
same,CACNA2D1 normalized gene expression,4.986 and 5.0613 and 5.2646
same,CACNB2 normalized gene expression,4.986 and 4.739 and 4.975
same,CACNB3 normalized gene expression,5.308 and 5.154 and 5.592
same,CACNB4 normalized gene expression,5.208 and 4.996 and 4.841
same,CACNG1 normalized gene expression,4.793 and 4.093 and 4.1271
same,CACNG4 normalized gene expression,6.629 and 6.927 and 6.75
same,CALML3 normalized gene expression,4.986 and 4.476 and 4.528
same,CALML5 normalized gene expression,4.924 and 3.739 and 3.291
same,CAMK2B normalized gene expression,5.156 and 4.029 and 4.1271
same,CAPN2 normalized gene expression,4.488 and 4.7789 and 4.653
same,CASP3 normalized gene expression,9.077 and 9.095 and 9.024
same,CASP7 normalized gene expression,7.9 and 7.832 and 7.858
same,CASP8 normalized gene expression,10.5065 and 10.4134 and 10.4228
same,CASP9 normalized gene expression,7.015 and 7.5638 and 7.592
same,CASP10 normalized gene expression,6.044 and 5.524 and 5.316
same,CBL normalized gene expression,6.94 and 6.657 and 6.805
same,CBLC normalized gene expression,2.723 and 1.891 and 3.0682
same,CCNA1 normalized gene expression,5.355 and 4.996 and 4.769
same,CCNA2 normalized gene expression,11.2764 and 11.2603 and 11.2666
same,CCNB1 normalized gene expression,12.2985 and 12.3229 and 12.3132
same,CCND1 normalized gene expression,7.343 and 7.069 and 7.218
same,CCND2 normalized gene expression,11.5762 and 11.5571 and 11.5967
same,CCND3 normalized gene expression,7.732 and 7.547 and 7.5547
same,CCNE1 normalized gene expression,7.001 and 7.297 and 7.31
same,CCNE2 normalized gene expression,8.015 and 7.524 and 7.638
same,CCNO normalized gene expression,5.156 and 4.093 and 4.0682
same,CCR7 normalized gene expression,3.723 and 3.817 and 3.483
same,CD14 normalized gene expression,5.53 and 5.402 and 5.437
same,CD19 normalized gene expression,4.571 and 4.476 and 4.184
same,CD40 normalized gene expression,6.86 and 6.729 and 6.901
same,CDC6 normalized gene expression,11.1861 and 11.1846 and 11.1724
same,CDC7 normalized gene expression,7.884 and 7.9093 and 7.845
same,CDC14A normalized gene expression,6.308 and 6.012 and 6.038
same,CDC14B normalized gene expression,5.86 and 5.891 and 6.0224
same,CDC25A normalized gene expression,8.686 and 8.482 and 8.39
same,CDC25B normalized gene expression,9.593 and 9.697 and 9.611
same,CDC25C normalized gene expression,8.406 and 8.5 and 8.492
same,CDH1 normalized gene expression,5.355 and 5.891 and 5.673
same,CDK2 normalized gene expression,8.944 and 8.829 and 8.792
same,CDK4 normalized gene expression,10.4105 and 10.495 and 10.3803
same,CDK6 normalized gene expression,9.974 and 9.747 and 9.87
same,CDKN1A normalized gene expression,7.714 and 7.882 and 7.792
same,CDKN1B normalized gene expression,7.835 and 7.891 and 7.722
same,CDKN1C normalized gene expression,7.81 and 7.789 and 7.581
